Test results as given in patent US7709482B2, “Polycyclic heteroaryl substituted triazoles useful as Axl inhibitors” (Rigel Pharmaceuticals, Inc., priority 2006, dated 2010).

What follows are compounds tested against T1, Axl (Homo sapiens, UniProt P30530) (assay: Phospho-Akt In-Cell Western Assay (inhibition of Axl activity after Axl-antibody cross-linking)). Settings: not given.
T1 construct: endogenous in cells; host or cells: HeLa cells
T1 sequence (P30530 26-894): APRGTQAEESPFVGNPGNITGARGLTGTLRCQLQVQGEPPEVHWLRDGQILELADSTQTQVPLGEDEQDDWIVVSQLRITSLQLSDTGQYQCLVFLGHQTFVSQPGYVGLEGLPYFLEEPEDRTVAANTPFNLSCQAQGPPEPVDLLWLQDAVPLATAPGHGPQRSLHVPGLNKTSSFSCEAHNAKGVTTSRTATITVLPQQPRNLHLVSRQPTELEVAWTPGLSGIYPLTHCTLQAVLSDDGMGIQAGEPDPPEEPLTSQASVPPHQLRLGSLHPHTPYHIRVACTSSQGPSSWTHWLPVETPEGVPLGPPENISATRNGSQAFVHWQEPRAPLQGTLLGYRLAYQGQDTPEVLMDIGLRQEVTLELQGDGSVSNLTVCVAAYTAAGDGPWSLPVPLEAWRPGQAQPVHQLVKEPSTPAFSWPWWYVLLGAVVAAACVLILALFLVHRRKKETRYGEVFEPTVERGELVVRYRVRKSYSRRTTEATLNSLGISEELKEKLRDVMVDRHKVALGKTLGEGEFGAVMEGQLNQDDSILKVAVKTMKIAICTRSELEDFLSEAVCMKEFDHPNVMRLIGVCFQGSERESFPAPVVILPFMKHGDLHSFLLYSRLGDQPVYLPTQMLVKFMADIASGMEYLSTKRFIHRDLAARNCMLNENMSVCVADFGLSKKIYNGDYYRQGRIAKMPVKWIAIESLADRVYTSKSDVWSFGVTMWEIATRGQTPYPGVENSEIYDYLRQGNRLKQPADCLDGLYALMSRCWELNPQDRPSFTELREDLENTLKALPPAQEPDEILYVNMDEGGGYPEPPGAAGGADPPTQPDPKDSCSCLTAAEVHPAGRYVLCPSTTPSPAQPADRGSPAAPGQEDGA
Assay type: cell-based
Procedure: The compounds of the invention were tested in the following assay for their ability to inhibit Axl activity.
Phospho-Akt In-Cell Western Assay
• Cell culture plate: 96 well assay plate (Corning 3610), white, clear bottom, tissue-culture treated. • Cells: Hela cells. • Starvation medium: For Axl stimulation: 0.5% FCS (fetal calf serum) in DMEM, plus Axl/Fc (extracellular domain of AXL fused to immunoglobulin Fc region) (R&D, 154-AL) 500 ng/mL. • For EGF (epidermal growth factor) stimulation: 0.5% FCS in DMEM (Dulbecco's modified Eagles medium). • Poly-L-Lysine 0.01% solution (the working solution): […], dilute In PBS (phosphate buffered saline). • Axl antibody cross-linking: • 1st: Mouse anti-Axl (R&D, MAB154). • 2nd: Biotin-SP-conjugated AffiniPure goat anti-mouse IgG (H+ L) (Jackson ImmunoResearch #115-065-003). • Fixing buffer: 4% formaldehyde in PBS. • Wash buffer: 0.1% TritonX-100 in PBS. • Quenching buffer: 3% H2O2, 0.1% Azide in wash buffer, Azide and hydrogen peroxide (H2O2) are added fresh. • Blocking buffer: 5% BSA in TBST (tris buffered saline plus 0.1% Tween 20). • Primary antibody: Rabbit anti-human Phospho-Akt antibody (Cell Signaling 9271): 1×250 diluted in blocking buffer. • Secondary antibody: HRP (horse radish peroxidase)-conjugated Goat anti-Rabbit secondary, stock solution: Jackson ImmunoResearch (Goat anti-Rabbit HRP, #111-035-144) 1:1 diluted in glycerol, store at −20° C. The working solution: 1×2000 dilution of stock in blocking buffer. • Chemiluminescent working solution (Pierce, 37030): SuperSignal ELISA (enzyme linked immunosorbant assay) Pico Chemiluminescent substrate. • Crystal Violet solution: Stock: 2.5% Crystal violet in methanol, filtered and kept at ambient temperature. The working solution: dilute the stock 1:20 with PBS immediately before use. • 10% SDS: working solution: 5% SDS (sodium dodecylsulfate), diluted in PBS Methods: Day 1:
A 96 well TC (tissue culture treated) plate was coated with 10 μg/mL poly-L-Lysine at 37° C. for 30 min, washed twice with PBS, and air-dried for 5 minutes before cells were added. Hela cells were seeded at 10,000 cells/well and the cells were starved in 100 μL starvation medium containing Axl/Fc for 24 hrs.
The cells were pre-treated with test compounds by adding 100 μL of 2× test compound to the starvation medium on the cells. The cells were incubated at 37° C. for 1 hr before stimulation.
The resulting mix was warmed to 37° C. 50 μL of 5×Axl 1st/2nd of antibody cluster was added to the cells and the cells were incubated at 37° C. for 5 min.
After 5 minutes stimulation, the plate was flicked to remove medium and the plate was tapped onto paper towels. Formaldehyde (4.0% in PBS, 100 μL) was added to fix the cells and the cells were incubated at ambient temperature for 20 min without shaking.
The cells were washed with a plate washer buffer to remove the formaldehyde solution. The plate was flicked to removed excess wash buffer and tapped onto paper towels. Quenching buffer (100 μL) was added to each well and the cells were incubated at ambient temperature for 20 minutes without shaking.
The cells were washed with a plate washer buffer to remove the quenching buffer. Blocking buffer (100 μL) was added and the cells were incubated at ambient temperature for at least an hour with gentle shaking.
The cells were washed with a plate washer buffer and diluted primary antibody (50 μL) was added to each well (blocking buffer was added to the negative control wells instead). The plates were incubated overnight at 4° C. with gentle shaking.
The wash buffer was removed, diluted secondary antibody (100 μL) was added, and the cells were incubated at ambient temperature for 1 hour with gentle shaking. During the incubation, the chemiluminescent reagent was brought to ambient temperature.
The secondary antibody was removed by washing the cells 1× with wash buffer, 1× with PBS by plate washer.

Row | SMILES | IC50 [nM]
1 | Nc1nc(Nc2ccc(N3CCC(N4C(=O)Cc5ccccc54)CC3)c(F)c2)nn1-c1cc2c(nn1)-c1ccccc1CCC2 [Compound 7, 1-(6,7-dihydro-5H-benzo[6,7]cyclohepta[1,2-c]pyridazin-3-yl)-N^3-(3-fluoro-4-(4-(indolin-2-on-1-yl)piperidin-1-yl)phenyl)-1H-1,2,4-triazole-3,5-diamine] | > 20000

Same assay, conditions: Hela cells, phospho-Akt chemiluminescence normalized to relative cell number; compounds of formula (Ia), Table 1; read-out: IC50

Row | SMILES | IC50 [nM]
2 | Nc1nc(Nc2ccc(OCCN3CCCC3)cc2)nn1-c1cc2c(nn1)-c1ccccc1CCC2 [Compound 1, 1-(6,7-dihydro-5H-benzo[6,7]cyclohepta[1,2-c]pyridazin-3-yl)-N^3-(4-(2-(pyrrolidin-1-yl)ethoxy)phenyl)-1H-1,2,4-triazole-3,5-diamine] | < 1000
3 | Nc1nc(Nc2ccc(N3CCN(C4CCCCC4)CC3)cc2)nn1-c1cc2c(nn1)-c1ccccc1CCC2 [Compound 3, N^3-(4-(4-cyclohexanylpiperazin-1-yl)phenyl)-1-(6,7-dihydro-5H-benzo[6,7]cyclohepta[1,2-c]pyridazin-3-yl)-1H-1,2,4-triazole-3,5-diamine] | < 1000
4 | Nc1nc(Nc2ccc(N3CCC(N4CCCC4)CC3)c(F)c2)nn1-c1cc2c(nn1)-c1ccccc1CCC2 [Compound 4] | < 1000
5 | CN1CCN(c2ccc(Nc3nc(N)n(-c4cc5c(nn4)-c4ccccc4CCC5)n3)cc2F)CC1c1ccccc1 (stereo not drawn) [Compound 5, 1-(6,7-dihydro-5H-benzo[6,7]cyclohepta[1,2-c]pyridazin-3-yl)-N^3-(3-fluoro-4-(4-methyl-3-phenylpiperazin-1-yl)phenyl)-1H-1,2,4-triazole-3,5-diamine] | > 20000
6 | Nc1nc(Nc2ccc(N3CCC(N4CCCCC4)CC3)c(F)c2)nn1-c1cc2c(nn1)-c1ccccc1CCC2 [Compound 6, 1-(6,7-dihydro-5H-benzo[6,7]cyclohepta[1,2-c]pyridazin-3-yl)-N^3-(3-fluoro-(4-(4-piperidin-1-yl)piperidin-1-yl)phenyl)-1H-1,2,4-triazole-3,5-diamine] | < 1000
7 | Nc1nc(Nc2ccc(N3CCN(C4CC5CCC4C5)CC3)nc2)nn1-c1cc2c(nn1)-c1ccccc1CCC2 (stereo not drawn) [Compound 8, 1-(6,7-dihydro-5H-benzo[6,7]cyclohepta[1,2-c]pyridazin-3-yl)-N^3-(6-(4-(bicyclo[2.2.1]heptan-2-yl)piperazin-1-yl)pyridin-3-yl)-1H-1,2,4-triazole-3,5-diamine] | 1000 to 10000
8 | Nc1nc(Nc2ccc(N3CCC(N4CCOCC4)CC3)c(F)c2)nn1-c1cc2c(nn1)-c1ccccc1CCC2 [Compound 9, 1-(6,7-dihydro-5H-benzo[6,7]cyclohepta[1,2-c]pyridazin-3-yl)-N^3-(3-fluoro-4-(4-(morpholin-4-yl)piperidin-1-yl)phenyl)-1H-1,2,4-triazole-3,5-diamine] | 1000 to 10000
9 | Nc1nc(Nc2ccc(C(=O)N3CCN(C4CCCC4)CC3)cc2)nn1-c1cc2c(nn1)-c1ccccc1CCC2 [Compound 10, 1-(6,7-dihydro-5H-benzo[6,7]cyclohepta[1,2-c]pyridazin-3-yl)-N^3-(4-(4-(cyclopentyl)piperazin-1-ylcarbonyl)phenyl)-1H-1,2,4-triazole-3,5-diamine] | 1000 to 10000
10 | Nc1nc(Nc2ccc3c(c2)NC(=O)CCC3)nn1-c1cc2c(nn1)-c1ccccc1CCC2 [Compound 11, 1-(6,7-dihydro-5H-benzo[6,7]cyclohepta[1,2-c]pyridazin-3-yl)-N^3-(4,5-dihydro-1H-benzo[b]azepin-2(3H)-on-8-yl)-1H-1,2,4-triazole-3,5-diamine] | < 1000
11 | Nc1nc(Nc2ccc(C(=O)NCCN3CCCC3)cc2)nn1-c1cc2c(nn1)-c1ccccc1CCC2 [Compound 12, 1-(6,7-dihydro-5H-benzo[6,7]cyclohepta[1,2-c]pyridazin-3-yl)-N^3-(4-((2-pyrrolidin-1-ylethyl)aminocarbonyl)phenyl)-1H-1,2,4-triazole-3,5-diamine] | < 1000
12 | CN(C)Cc1nc2cc(Nc3nc(N)n(-c4cc5c(nn4)-c4ccccc4CCC5)n3)ccc2[nH]1 [Compound 13, 1-(6,7-dihydro-5H-benzo[6,7]cyclohepta[1,2-c]pyridazin-3-yl)-N^3-(2-((dimethylamino)methyl)-1H-benzo[d]imidazol-5-yl)-1H-1,2,4-triazole-3,5-diamine] | 1000 to 10000
13 | CC1(C)CCCC(C)(C)N1CCOc1ccc(Nc2nc(N)n(-c3cc4c(nn3)-c3ccccc3CCC4)n2)cc1 [Compound 14, 1-(6,7-dihydro-5H-benzo[6,7]cyclohepta[1,2-c]pyridazin-3-yl)-N^3-(4-(2,2,6,6-tetramethylpiperidin-1-yl)ethoxyphenyl)-1H-1,2,4-triazole-3,5-diamine] | 1000 to 10000
14 | CC1CN(C2CCCC2)CCN1c1ccc(Nc2nc(N)n(-c3cc4c(nn3)-c3ccccc3CCC4)n2)cc1 (stereo not drawn) [Compound 16, 1-(6,7-dihydro-5H-benzo[6,7]cyclohepta[1,2-c]pyridazin-3-yl)-N^3-(4-(4-cyclopentyl-2-methylpiperazin-1-yl)phenyl)-1H-1,2,4-triazole-3,5-diamine] | < 1000
15 | CC1CN(c2ccc(Nc3nc(N)n(-c4cc5c(nn4)-c4ccccc4CCC5)n3)cc2)CC(C)N1 (stereo not drawn) [Compound 17, 1-(6,7-dihydro-5H-benzo[6,7]cyclohepta[1,2-c]pyridazin-3-yl)-N^3-(4-(3,5-dimethylpiperazin-1-yl)phenyl)-1H-1,2,4-triazole-3,5-diamine] | < 1000
16 | N#Cc1cc(Nc2nc(N)n(-c3cc4c(nn3)-c3ccccc3CCC4)n2)ccc1N1CCC(N2CCCC2)CC1 [Compound 18, 1-(6,7-dihydro-5H-benzo[6,7]cyclohepta[1,2-c]pyridazin-3-yl)-N^3-(4-(4-(pyrrolidin-1-yl)piperidin-1-yl)-3-cyanophenyl)-1H-1,2,4-triazole-3,5-diamine] | < 1000
17 | CN(C)CCNC(=O)c1ccc(Nc2nc(N)n(-c3cc4c(nn3)-c3ccccc3CCC4)n2)cc1 [Compound 19, 1-(6,7-dihydro-5H-benzo[6,7]cyclohepta[1,2-c]pyridazin-3-yl)-N^3-(4-((2-(dimethylamino)ethyl)-aminocarbonyl)phenyl)-1H-1,2,4-triazole-3,5-diamine] | 1000 to 10000
18 | COCCNC(=O)c1ccc(Nc2nc(N)n(-c3cc4c(nn3)-c3ccccc3CCC4)n2)cc1 [Compound 20, 1-(6,7-dihydro-5H-benzo[6,7]cyclohepta[1,2-c]pyridazin-3-yl)-N^3-(4-((2-(methoxy)ethyl)amino-carbonyl)phenyl)-1H-1,2,4-triazole-3,5-diamine] | 1000 to 10000
